Measurements taken from PMC4249970 (PLoS ONE, 2014).

Legend:
[1] = tested on: acetic acid-induced writhing in CD-1 male mice; assay: acetic acid writhing test (model of visceral pain); assay type: in vivo; conditions: for number of stretches: writhing test 30 minutes after antagonist
Experimental: After acetic acid administration, mice were placed in individual transparent containers and, after 5 min, the number of writhes was counted during a 10 min period.
The animals, CD-1 male mice (25–27 g), were redistributed in groups, two of which were used as the control group. […] All drugs were intraperitoneally (i.p.) administered, 30 minutes before the algogen agent. Control mice were treated with 10 ml/kg of saline solution. Each group included 10–12 animals; those animals showing behavioral alterations were previously discarded. Each animal was used only once. An observer who was unaware of the different treatments carried out the collection of data.
The experimental test used was the acetic acid writhing test. The effect of the i.p. administration of 10 ml/kg of acetic acid (2%) was measured by quantifying the number of writhing responses in the three groups of animals over a 10 minutes period. Responses were measured starting 5 minutes after the algogen agent was administered. The animals used were supplied by the animal house of Universidad Rey Juan Carlos. Room temperature was kept at 22±1°C. A 12 hours light - dark cycle was started at 8:00 a.m., at constant humidity. All animals were given free access to food and water.

[2] = biological target: T1, TRPA1 (Homo sapiens, UniProt O75762); assay: whole-cell voltage clamp of AITC-evoked currents in hTRPA1-expressing IMR-90 cells; assay type: cell-based; set-up: expressed in transfected cells; host or cells: IMR-90; conditions: 100 µM AITC
Experimental: A) Representative whole-cell voltage clamp recording from hTRPA1-expressing IMR-90. Currents were measured every second during a holding potential of -60 mV. Pre-application of 6a/b (20 s) was followed by co-application with 100 µM AITC for 60s in presence of 2.0 mM extracellular Ca^2+. Current traces of different colours denote the different concentrations of compound 6a/b tested. B) Dose response of compound 6a/b blockade activity. Solid line depicts the fitting to a Michaelis isotherm. […] Data are given as mean ± sem, with n≥4 cells) per data point. (TIF) Click here for additional data file.
A) Representative whole-cell voltage clamp recording from hTRPA1-expressing IMR-90 cells in the absence of extracellular Ca^2+. Ionic currents, at positive and negative potentials were measured every 2s during a 350 ms voltage ramp from −60 mV to +60 mV and evoked with 100 µM AITC followed by the addition of 100 µM compound 6a/b for 20s. AITC was present with drug application and after application to evaluated current reversibility B) Current-voltage relationships of TRPA1 in the absence and presence of 100 µM compound 6a/b in Ca^2+ free medium. […] Data were obtained from n≥4 cells. (TIF) Click here for additional data file.

[3] = biological target: T2, human recombinant COX-2 (Homo sapiens, UniProt P35354); assay: COX inhibitor screening assay (Cayman kit 700100); assay type: biochemical; conditions: at 10 mM
T2 construct: purchased Cayman Chemical Company kit 700100
T2 sequence (P35354 18-604): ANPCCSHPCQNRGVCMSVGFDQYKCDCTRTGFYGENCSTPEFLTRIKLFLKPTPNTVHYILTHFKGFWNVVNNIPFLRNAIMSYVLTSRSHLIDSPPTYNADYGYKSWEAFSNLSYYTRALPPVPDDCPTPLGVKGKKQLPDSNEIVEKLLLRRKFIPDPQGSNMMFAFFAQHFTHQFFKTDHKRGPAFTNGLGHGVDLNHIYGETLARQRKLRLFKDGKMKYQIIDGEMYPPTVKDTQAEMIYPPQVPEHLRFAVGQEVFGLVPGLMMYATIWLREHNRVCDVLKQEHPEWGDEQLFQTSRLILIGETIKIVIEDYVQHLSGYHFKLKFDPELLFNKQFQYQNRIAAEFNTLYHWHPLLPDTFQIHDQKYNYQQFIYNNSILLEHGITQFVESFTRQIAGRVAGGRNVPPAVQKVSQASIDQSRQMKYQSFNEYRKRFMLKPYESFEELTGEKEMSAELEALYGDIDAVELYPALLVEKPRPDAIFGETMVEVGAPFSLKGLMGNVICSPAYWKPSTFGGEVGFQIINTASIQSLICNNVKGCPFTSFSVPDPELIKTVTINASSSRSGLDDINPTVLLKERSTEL
Description: A COX inhibitor screening assay (kit 700100) was used to determine the activity of isolated ovine COX-1 and human recombinant COX-2 as described by the manufacturer (Cayman Chemical Company, USA).

[4] = biological target: T3, TRPM8 (Homo sapiens, UniProt Q7Z2W7); assay: Ca2+ fluorographic assay, TRPM8-HEK cells activated with 100 µM menthol; assay type: cell-based; conditions: 50 µM compound
T3 construct: expressed in transfected cells; host or cells: HEK
Experimental: (§1) For fluorescence assays, cells expressing TRP channels (TRPV1-SH-SY5Y, TRPM8-HEK and TRPA1-IMR90) were seeded in 96-well plates (Corning Incorporated, Corning, NY) at a cell density of 40,000 cells 2 days before treatment. The day of treatment the medium was replaced with 100 µL of the dye loading solution Fluo-4 NW supplemented with probenecid 2.5 mM. Then the compounds dissolved in DMSO were added at the desired concentrations and the plate(s) were incubated at 37°C in a humidified atmosphere of 5% CO2 for 60 minutes.
(§2) The fluorescence was measured using instrument settings appropriate for excitation at 485 nm and emission at 535 nm. (POLARstar Omega BMG LAB tech). A baseline recording of 7 cycles was recorded prior to stimulation with the agonist (10 µM capsaicin for TRPV1, 100 µM menthol for TRPM8, and 100 µM AITC for TRPA1). The corresponding antagonist (10 µM Ruthenium Red for TRPV1 and TRPA1, 100 µM AMTB for TRPM8) was added for the blockade. The changes in fluorescence intensity were recorded during 15 cycles more. DMSO, at the higher concentration used in the experiment, was added to the control wells.
(§3) The degree of blockage (%) of TRP channel activity was calculated by: [drawing 1]

[5] = tested on: TRPV1; assay: Ca2+ fluorographic assay, TRPV1-SH-SY5Y cells activated by 10 µM capsaicin; assay type: cell-based; conditions: 50 µM compound
Experimental: as §1, §2, §3

[6] = biological target: T1, TRPA1; assay: Ca2+ fluorographic assay, TRPA1-IMR90 cells activated with 100 µM AITC; assay type: cell-based; set-up: expressed in transfected cells; host or cells: IMR90
Experimental: as §1, §2, §3

[7] = i.p. 30 minutes before acetic acid

T1 sequence (O75762 whole entry): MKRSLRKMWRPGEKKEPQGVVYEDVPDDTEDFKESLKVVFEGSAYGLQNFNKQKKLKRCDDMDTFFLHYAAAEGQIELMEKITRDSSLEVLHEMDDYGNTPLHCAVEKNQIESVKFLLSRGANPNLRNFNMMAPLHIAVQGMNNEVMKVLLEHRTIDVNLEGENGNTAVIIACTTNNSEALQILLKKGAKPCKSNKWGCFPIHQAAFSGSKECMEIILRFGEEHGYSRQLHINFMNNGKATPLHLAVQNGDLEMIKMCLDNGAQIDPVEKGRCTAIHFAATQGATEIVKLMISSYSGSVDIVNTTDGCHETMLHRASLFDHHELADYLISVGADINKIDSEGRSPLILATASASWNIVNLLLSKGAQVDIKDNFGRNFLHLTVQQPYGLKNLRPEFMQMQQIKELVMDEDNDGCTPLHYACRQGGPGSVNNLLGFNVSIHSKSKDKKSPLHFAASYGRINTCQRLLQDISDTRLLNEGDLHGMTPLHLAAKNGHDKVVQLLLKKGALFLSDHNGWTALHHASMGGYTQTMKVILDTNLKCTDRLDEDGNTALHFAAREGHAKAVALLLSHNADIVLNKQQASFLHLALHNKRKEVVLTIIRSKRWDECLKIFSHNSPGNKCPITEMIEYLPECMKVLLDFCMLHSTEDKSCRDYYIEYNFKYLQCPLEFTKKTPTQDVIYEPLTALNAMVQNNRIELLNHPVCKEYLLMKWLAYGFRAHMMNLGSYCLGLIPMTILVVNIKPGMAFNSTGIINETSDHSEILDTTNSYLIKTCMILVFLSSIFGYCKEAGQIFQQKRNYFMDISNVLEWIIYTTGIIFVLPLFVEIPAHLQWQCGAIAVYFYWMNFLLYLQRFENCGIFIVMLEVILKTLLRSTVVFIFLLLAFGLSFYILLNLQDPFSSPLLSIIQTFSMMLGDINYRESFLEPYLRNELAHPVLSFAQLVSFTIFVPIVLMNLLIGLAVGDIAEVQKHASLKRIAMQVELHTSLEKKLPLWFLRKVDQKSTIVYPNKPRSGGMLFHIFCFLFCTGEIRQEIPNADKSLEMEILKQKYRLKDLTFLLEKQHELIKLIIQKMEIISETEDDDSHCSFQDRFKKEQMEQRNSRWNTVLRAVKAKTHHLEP
T3 sequence (Q7Z2W7 whole entry, species assumed): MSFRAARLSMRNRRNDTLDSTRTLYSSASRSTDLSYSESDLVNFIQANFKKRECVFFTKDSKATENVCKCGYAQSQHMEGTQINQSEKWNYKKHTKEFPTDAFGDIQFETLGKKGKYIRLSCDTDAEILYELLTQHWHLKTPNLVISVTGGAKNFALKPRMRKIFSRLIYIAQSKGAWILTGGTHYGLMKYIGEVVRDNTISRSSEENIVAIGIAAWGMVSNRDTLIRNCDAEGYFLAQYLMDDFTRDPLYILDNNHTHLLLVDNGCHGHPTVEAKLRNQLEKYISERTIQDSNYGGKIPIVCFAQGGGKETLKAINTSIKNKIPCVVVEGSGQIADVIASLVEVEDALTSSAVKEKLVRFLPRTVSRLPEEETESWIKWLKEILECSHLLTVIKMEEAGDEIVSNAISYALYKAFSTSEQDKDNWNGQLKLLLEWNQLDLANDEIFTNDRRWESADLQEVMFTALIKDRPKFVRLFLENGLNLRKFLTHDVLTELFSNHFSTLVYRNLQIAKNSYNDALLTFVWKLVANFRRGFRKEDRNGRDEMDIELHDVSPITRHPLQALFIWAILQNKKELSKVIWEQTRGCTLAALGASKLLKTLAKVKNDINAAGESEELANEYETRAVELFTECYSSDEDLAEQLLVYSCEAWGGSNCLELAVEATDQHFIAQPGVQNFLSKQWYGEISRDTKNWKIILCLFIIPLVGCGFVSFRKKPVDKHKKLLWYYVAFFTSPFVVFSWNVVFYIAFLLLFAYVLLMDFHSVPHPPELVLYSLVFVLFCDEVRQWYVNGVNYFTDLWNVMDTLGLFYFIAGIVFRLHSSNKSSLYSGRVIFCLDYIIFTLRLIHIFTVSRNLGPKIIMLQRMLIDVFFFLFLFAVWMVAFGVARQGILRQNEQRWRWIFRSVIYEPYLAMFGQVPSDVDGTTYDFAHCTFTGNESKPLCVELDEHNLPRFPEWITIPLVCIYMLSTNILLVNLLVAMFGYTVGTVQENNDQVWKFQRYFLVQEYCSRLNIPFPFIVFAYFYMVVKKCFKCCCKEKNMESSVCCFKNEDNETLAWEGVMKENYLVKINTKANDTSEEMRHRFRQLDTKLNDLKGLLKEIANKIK

CC(=O)Nc1ccc(O)cc1 [paracetamol, 4-hydroxyacetanilide, reference compound]
reduction of the nociceptic behavior (writhes) ([1]; 100 mg/kg i.p. 30 minutes before acetic acid): 40%

CC(=O)NC12CC3CC(CC(O)(C3)C1)C2 [compound 5, N-3-hydroxyadamantan-1-yl acetamide]
dose at which the analgesic effect saturated [1, 7]: 200 mg/kg | antinociceptive activity ([1]; i.p. 30 minutes before acetic acid, similar to paracetamol): ~40%

CC(=O)NC1C2CC3CC1CC(O)(C3)C2 (stereo not shown) [compound 6a/b, N-5-hydroxyadamantan-2-yl acetamide]
IC50 ([2]; 2.0 mM extracellular Ca2+, holding potential -60 mV, estimated, read-out: IC50 of blockade of TRPA1-mediated currents): 10.6 ± 0.7 µM | IC50 ([2]; absence of extracellular Ca2+, inferred, saturation of blockade not reached, read-out: IC50 of blockade of TRPA1 currents): ≥ 80 µM | analgesic efficacy at saturation, compared with paracetamol and morphine ([1]; at saturation (750 mg/kg i.p.)): significantly higher than paracetamol and similar to morphine | number of stretches ([1]; compound given 30 minutes before CB1 antagonist AM251 (3 mg/kg i.p.)): 13±1 | number of stretches ([1]; compound given 30 minutes before CB2 antagonist AM630 (1 mg/kg i.p.)): 15.5±1.7 | dose at which the analgesic effect saturated [1, 7]: 750 mg/kg | effect on COX-2 enzymatic activity [3]: did not affect the enzymatic activity | effect on TRPM8 channel activity [4]: No significative effect | effect on TRPV1 channel activity [5]: No significative effect | blockade of TRPA1 channel activity ([6]; 50 µM compound, 100 µM AITC): up to 85% | IC50 ([6]; dose-response curve, 100 µM AITC, mean ± SEM, n ≥5, read-out: TRPA1 inhibition IC50): 2.6 µM | nH (hill coefficient) of TRPA1 inhibition ([6]; fit to a binding isotherm): 0.21

CC(=O)NC1C2CC3CC1CC(O)(C3)C2 (stereo not shown) [compound 6a, N-5-hydroxyadamantan-2-yl acetamide]
melting point: 184 °C
